Reference: US20100173835A1, “Peptides for Treatment of Obesity” (Novo Nordisk A/S, priority 2008, published 2010)
Converted amounts (≈) assume the structure as drawn. Like-named read-outs stand apart in the source and are kept apart here. *1 amine or outer side, *2 acyl side, *3 side chain or, on linkers, in order; H or OH if unused. Where a SMILES comes first, the peptide text is derived from it. Bridges are numbered along the chain shown (N, C = ends). [ ]: non-standard residue; d: D form. The star is where a group is joined. Palmitoyl(16-(5-tetrazolyl)) = O=C(CCCCCCCCCCCCCCCc1nnn[nH]1)*; Lys(CH2CO2H)2 = N[C@@H](CCCCN(CC(=O)O)CC(=O)O)C(=O)O; X1 = O=C(O)CN(CC(=O)O)C[C@H](N[*:1])C(=O)[*:2]; C20 diacid = O=C(O)CCCCCCCCCCCCCCCCCCC(=O)*; Hyp = O=C(O)[C@@H]1C[C@@H](O)CN1; NTA = O=C(O)CN(CC(=O)O)CC(=O)*; Nle = CCCC[C@H](N)C(=O)O; Dap = NC[C@H](N)C(=O)O; AEEA = NCCOCCOCC(=O)O; βAla = NCCC(=O)O

What was measured:
MC1 receptor = target: T1, MC1 receptor (Homo sapiens, UniProt Q01726); experiment: Assay (IV) Melanocortin Receptor 1 (MC1) binding assay
T1 construct: expressed in transfected cells
T1 sequence (Q01726 whole entry): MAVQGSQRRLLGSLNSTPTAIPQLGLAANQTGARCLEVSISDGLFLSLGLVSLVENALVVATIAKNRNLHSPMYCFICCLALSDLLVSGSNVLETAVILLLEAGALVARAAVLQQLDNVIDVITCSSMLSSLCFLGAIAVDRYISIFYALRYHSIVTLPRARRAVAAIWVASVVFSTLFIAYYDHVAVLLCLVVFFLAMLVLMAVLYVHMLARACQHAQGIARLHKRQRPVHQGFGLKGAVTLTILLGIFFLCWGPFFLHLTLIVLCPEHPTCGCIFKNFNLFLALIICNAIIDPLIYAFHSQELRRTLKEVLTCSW
Experimental: Assay (IV)—Melanocortin Receptor 1 (MC1) Binding Assay
The MC1 receptor binding assay is performed on BHK cell membranes stably expressing the MC1 receptor. The assay is performed in a total volume of 250 NI: 25 μl of ^125NDP-α-MSH (22 pM in final concentration), 25 μl of test compound/control and 200 μl of cell membrane (25 μg/ml). Test compounds are dissolved in DMSO. Radioactively labeled ligand, membranes and test compounds are diluted in buffer: 25 mM HEPES, pH 7.4, 0.1 mM CaCl2, 1 mM MgSO4, 1 mM EDTA, 0.1% HSA and 0.005% Tween™ 20. Alternatively, HSA may be substituted with ovalbumin. The samples are incubated at 30° C. for 90 min. in Costar round-bottom microtiter plates. Incubation is terminated by filtration on a Packard harvester filtermate. Rapid filtration through Packard Unifilter-96 GF/B filters pre-treated with polyethylenimine (PerkinElmer 6005277). The filters are washed with ice-cold 0.9% NaCl 8-10 times. The plates is air dried at app. 55° C. for 30 min, and 50 μl Microscint 0 (Packard, cat. No. 6013616) is added to each well. The plates are counted in a Topcounter (1 min/well).
(§1) The data are analysed by non-linear regression analysis of binding curves, using the Windows™ program GraphPad™ Prism (GraphPad Software, USA).

human MC4 receptor = target: T2, human MC4 receptor (Homo sapiens, UniProt P32245); experiment: Assay (V) Melanocortin Receptor 4 (MC4) binding assay; conditions: 125NDP-α-MSH binding, BHK cell membranes
T2 construct: expressed in transfected cells
T2 sequence (P32245 whole entry): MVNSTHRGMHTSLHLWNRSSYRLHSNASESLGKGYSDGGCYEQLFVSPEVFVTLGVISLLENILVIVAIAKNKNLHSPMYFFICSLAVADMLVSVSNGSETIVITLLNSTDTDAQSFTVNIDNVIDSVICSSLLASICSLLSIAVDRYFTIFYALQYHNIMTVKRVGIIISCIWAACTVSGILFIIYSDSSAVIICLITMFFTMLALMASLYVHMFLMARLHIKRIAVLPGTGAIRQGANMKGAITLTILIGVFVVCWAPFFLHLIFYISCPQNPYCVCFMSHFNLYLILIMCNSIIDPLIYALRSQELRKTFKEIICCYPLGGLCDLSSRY
Experimental: Assay (V)—Melanocortin Receptor 4 (MC4) Binding Assay
In vitro ^125NDP-α-MSH binding to recombinant BHK cells expressing human MC4 receptor (filtration assay).
The assay is performed in 5 ml minisorb vials (Sarstedt No. 55.526) or in 96-well filterplates (Millipore MADVN 6550), and using BHK cells expressing the human MC4 receptor using BHK cells stably expressing the human MC4 receptor. The membranes were prepared from frozen or fresh cells that were homogenized in 20 mM HEPES pH 7.1, 5 mM MgCl2 and 1 mg/ml bacitracin and centrifuged at 15000 rpm at 4° C., 10 min in a Sorvall RC 5B plus, SS-34 rotor. The supernatant was discarded, and the pellets were re-suspended in buffer, homogenized and centrifuged two more times. The final pellets were resuspended in the buffer mentioned above, and the protein concentration was measured and adjusted with buffer to 14 to 17 mg/ml and the membrane preparation were kept at −80° C. until assay. The assay was run directly on a dilution of this cell membrane suspension, without any further preparation. The BHK cell membranes are kept at −80° C. until assay, and the assay is run directly on a dilution of this cell membrane suspension, without further preparation. The suspension is diluted to give maximally 10% specific binding, i.e. to approx. 50-100 fold dilution. The assay is performed in a total volume of 200 μl: 50 μl of cell suspension, 50 μl of ^125NDP-α-MSH (≈79 pM in final concentration), 50 μl of test compound and 50 μl binding buffer (pH 7) mixed and incubated for 2 h at 25° C. [binding buffer: 25 mM HEPES, pH 7.0, 1 mM CaCl2, 1 mM MgSO4, 1 mM EGTA, 0.02% Bacitracin, 0.005% Tween™ 20 and 0.1% HSA or, alternatively, 0.1% ovalbumin (Sigma; catalogue No. A-5503)]. Test compounds are dissolved in DMSO and diluted in binding buffer. Radiolabelled ligand and membranes are diluted in binding buffer. The incubation is stopped by dilution with 2×100 μl ice-cold 0.9% NaCl. The radioactivity retained on the filters is counted using a Cobra II auto gamma counter.
as §1

[1] = Solubility data of compounds in water over the pH range; format: physicochemical; conditions: read-out: Conc (solubility in water)
[2] = 125NDP-α-MSH binding, BHK cell membranes, read-out: Assay (IV) MC1 Ki

Q: Which Ki (MC1 receptor) does the source give for `CCCC[C@H](NC(=O)[C@H](CCCCN(CC(=O)O)CC(=O)O)NC(=O)[C@H](Cc1c[nH]cn1)NC(=O)[C@H](CCC(N)=O)NC(=O)[C@H](CO)NC(=O)[C@H](CO)NC(=O)[C@H](CCC(N)=O)NC(=O)[C@@H](CO)NC(=O)CNC(=O)COCCOCCNC(=O)COCCOCCNC(=O)CCCCCCCCCCCCCCCc1nnn[nH]1)C(=O)N[C@H]1CCC(=O)NCCCC[C@@H](C(N)=O)NC(=O)[C@H](Cc2c[nH]c3ccccc23)NC(=O)[C@H](CCCNC(=N)N)NC(=O)[C@@H](Cc2ccccc2)NC(=O)[C@@H]2C[C@@H](O)CN2C1=O` [Example 3, (2-{2-[2-(2-{2-[16-(Tetrazol-5-yl)hexadecanoylamino]ethoxy}ethoxy)acetylamino]ethoxy}ethoxy)acetyl-Gly-D-Ser-Gln-Ser-Ser-Gln-His-Lys(biscarboxymethyl)-Nle-c[Glu-Hyp-D-Phe-Arg-Trp-Lys]-NH2] ({Palmitoyl(16-(5-tetrazolyl))-AEEA-AEEA}-G[dS]QSSQH[Lys(CH2CO2H)2][Nle]E[Hyp][dF]RWK-NH2; lactam 10-15) here?
A: The Ki was > 10000 nM.

Q: And the Ki (human MC4 receptor; Assay (V) MC4 [Ki] (nM))?
A: The Ki was 1.95 nM.

Q: And the solubility at 3 days ([1]; pH 2.95, pH 2.95)?
A: The solubility at 3 days was 435 µM (≈ 1100 µg/mL).

Q: And the solubility at 3 days ([1]; pH 3.88, pH 3.88)?
A: Its solubility at 3 days is 570 µM (≈ 1440 µg/mL).

Q: And the solubility at 3 days ([1]; pH 4.82, pH 4.82)?
A: Its solubility at 3 days is 429 µM (≈ 1080 µg/mL).

Q: What about the solubility at 3 days ([1]; pH 4.84, pH 4.84) of the same compound?
A: The solubility at 3 days was 324 µM (≈ 818 µg/mL).

Q: What about the solubility at 3 days ([1]; pH 5.18, pH 5.18) of the same compound?
A: The solubility at 3 days was 75 µM (≈ 189 µg/mL).

Q: What about the solubility at 3 days ([1]; pH 6.1, pH 6.10) of the same compound?
A: Its solubility at 3 days is 39 µM (≈ 98.5 µg/mL).

Q: What about the solubility at 3 days ([1]; pH 6.95, pH 6.95) of the same compound?
A: The solubility at 3 days was 87 µM (≈ 220 µg/mL).

Q: What about the solubility at 3 days ([1]; pH 7.15, pH 7.15) of the same compound?
A: Its solubility at 3 days is 190 µM (≈ 480 µg/mL).

Q: And the solubility at 3 days ([1]; pH 7.24, pH 7.24)?
A: The solubility at 3 days was 256 µM (≈ 646 µg/mL).

Q: And the solubility at 3 days ([1]; pH 7.29, pH 7.29)?
A: Its solubility at 3 days is 316 µM (≈ 798 µg/mL).

Q: Which Ki (MC1 receptor) does the source give for `CCCC[C@H](NC(=O)[C@H](CCCCN(CC(=O)O)CC(=O)O)NC(=O)[C@H](Cc1c[nH]cn1)NC(=O)[C@H](CCC(N)=O)NC(=O)[C@H](CO)NC(=O)CNC(=O)COCCOCCNC(=O)CCCCCCCCCCCCCCCc1nnn[nH]1)C(=O)N[C@H]1CCC(=O)NCCCC[C@@H](C(N)=O)NC(=O)[C@H](Cc2c[nH]c3ccccc23)NC(=O)[C@H](CCCNC(=N)N)NC(=O)[C@@H](Cc2ccccc2)NC(=O)[C@@H]2C[C@@H](O)CN2C1=O` [Example 7, (2-{2-[16-(Tetrazol-5-yl)hexadecanoylamino]ethoxy}ethoxy)acetyl-Gly-Ser-Gln-His-Lys(biscarboxymethyl)-Nle-c[Glu-Hyp-D-Phe-Arg-Trp-Lys]-NH2] ({Palmitoyl(16-(5-tetrazolyl))-AEEA}-GSQH[Lys(CH2CO2H)2][Nle]E[Hyp][dF]RWK-NH2; lactam 7-12) here?
A: Its Ki is 8710 nM.

Q: What about the Ki (human MC4 receptor; Assay (V) MC4 [Ki] (nM)) of the same compound?
A: Its Ki is 1.6 nM.

Q: What about the solubility at 3 days ([1]; pH 2.94, pH 2.94) of the same compound?
A: The solubility at 3 days was 536 µM (≈ 1110 µg/mL).

Q: What about the solubility at 3 days ([1]; pH 3.28, pH 3.28) of the same compound?
A: The solubility at 3 days was 476 µM (≈ 989 µg/mL).

Q: What about the solubility at 3 days ([1]; pH 3.59, pH 3.59) of the same compound?
A: Its solubility at 3 days is 398 µM (≈ 827 µg/mL).

Q: And the solubility at 3 days ([1]; pH 3.95, pH 3.95)?
A: The solubility at 3 days was 276 µM (≈ 573 µg/mL).

Q: What about the solubility at 3 days ([1]; pH 4.75, pH 4.75) of the same compound?
A: The solubility at 3 days was 42 µM (≈ 87.3 µg/mL).

Q: What about the solubility at 3 days ([1]; pH 5.64, pH 5.64) of the same compound?
A: The solubility at 3 days was 19 µM (≈ 39.5 µg/mL).

Q: And the solubility at 3 days ([1]; pH 6.48, pH 6.48)?
A: Its solubility at 3 days is 18 µM (≈ 37.4 µg/mL).

Q: And the solubility at 3 days ([1]; pH 6.98, pH 6.98)?
A: Its solubility at 3 days is 35 µM (≈ 72.7 µg/mL).

Q: And the solubility at 3 days ([1]; pH 7.48, pH 7.48)?
A: Its solubility at 3 days is 262 µM (≈ 544 µg/mL).

Q: And the solubility at 3 days ([1]; pH 7.78, pH 7.78)?
A: The solubility at 3 days was 391 µM (≈ 812 µg/mL).

Q: Which results are given for `CCCC[C@H](NC(=O)[C@H](CNC(=O)CN(CC(=O)O)CC(=O)O)NC(=O)[C@H](Cc1ccc(O)cc1)NC(=O)[C@H](CCC(N)=O)NC(=O)[C@H](CO)NC(=O)CNC(=O)COCCOCCNC(=O)CCCCCCCCCCCCCCCc1nnn[nH]1)C(=O)N[C@H]1CCC(=O)NCCCC[C@@H](C(N)=O)NC(=O)[C@H](Cc2c[nH]c3ccccc23)NC(=O)[C@H](CCCNC(=N)N)NC(=O)[C@@H](Cc2ccccc2)NC(=O)[C@@H]2C[C@@H](O)CN2C1=O` [Example 19, (2-{2-[16-(Tetrazol-5-yl)hexadecanoylamino]ethoxy}ethoxy)acetyl-Gly-Ser-Gln-Tyr-Dap(BCMA)-Nle-c[Glu-Hyp-D-Phe-Arg-Trp-Lys]-NH2] ({Palmitoyl(16-(5-tetrazolyl))-AEEA}-GSQY[Dap](NTA)[Nle]E[Hyp][dF]RWK-NH2; lactam 7-12)?
A: Ki (MC1 receptor; [2]): > 10000 nM; Ki (human MC4 receptor; read-out: Assay (V) MC4 [Ki]): 3.9 nM

Q: Which results are given for `CCCC[C@H](NC(=O)CCNC(=O)[C@H](CCCCN(CC(=O)O)CC(=O)O)NC(=O)[C@H](Cc1c[nH]cn1)NC(=O)[C@H](CCC(N)=O)NC(=O)[C@H](CO)NC(=O)[C@H](CO)NC(=O)[C@H](CCC(N)=O)NC(=O)[C@@H](CO)NC(=O)CNC(=O)COCCOCCNC(=O)COCCOCCNC(=O)CCCCCCCCCCCCCCCCCCC(=O)O)C(=O)N[C@H]1CCC(=O)NCCCC[C@@H](C(N)=O)NC(=O)[C@H](Cc2c[nH]c3ccccc23)NC(=O)[C@H](CCCNC(=N)N)NC(=O)[C@@H](Cc2ccccc2)NC(=O)[C@@H]2C[C@@H](O)CN2C1=O` [Example 22, {2-[2-(2-{2-[2-(19-Carboxynonadecanoylamino)ethoxy]ethoxy}acetylamino)ethoxy]ethoxy}acetyl-Gly-D-Ser-Gln-Ser-Ser-Gln-His-Lys(biscarboxymethyl)β-Ala-Nle-c[Glu-Hyp-D-Phe-Arg-Trp-Lys]-NH2] ({C20 diacid-AEEA-AEEA}-G[dS]QSSQH[Lys(CH2CO2H)2][βAla][Nle]E[Hyp][dF]RWK-NH2; lactam 11-16)?
A: Ki (MC1 receptor): > 10000 nM; Ki (human MC4 receptor; Assay (V) MC4 [Ki] (nM)): 0.55 nM

Q: For `CCCC[C@H](NC(=O)[C@H](CN(CC(=O)O)CC(=O)O)NC(=O)[C@H](Cc1ccc(O)cc1)NC(=O)[C@H](CCC(N)=O)NC(=O)[C@H](CO)NC(=O)CNC(=O)COCCOCCNC(=O)CCCCCCCCCCCCCCCc1nnn[nH]1)C(=O)N[C@H]1CCC(=O)NCCCC[C@@H](C(N)=O)NC(=O)[C@H](Cc2c[nH]c3ccccc23)NC(=O)[C@H](CCCNC(=N)N)NC(=O)[C@@H](Cc2ccccc2)NC(=O)[C@@H]2C[C@@H](O)CN2C1=O` [Example 23, (2-{2-[16-(Tetrazol-5-yl)hexadecanoylamino]ethoxy}ethoxy)acetyl-Gly-Ser-Gln-Tyr-Dap(biscarboxymethyl)-Nle-c[Glu-Hyp-D-Phe-Arg-Trp-Lys]-NH2] ({Palmitoyl(16-(5-tetrazolyl))-AEEA}-GSQY[X1][Nle]E[Hyp][dF]RWK-NH2; lactam 7-12), which Ki (MC1 receptor; [2]) is on record?
A: Its Ki is > 10000 nM.

Q: What about the Ki (human MC4 receptor; read-out: Assay (V) MC4 [Ki]) of the same compound?
A: The Ki was 7.9 nM.
